These are literature values, as cited in patent publication US20180303793A1, “METHODS AND COMPOSITIONS FOR TREATING TRAUMATIC BRAIN INJURY” (SCYTHIAN BIOSCIENCES INC., priority 2015, published 2018).

Each structure is given as a SMILES string.

The conditions of the data set: single agent.

On to `CCCCCCC(C)(C)c1cc(O)c2c(c1)OC(C)(C)[C@H]1CC=C(CO)C[C@H]21` [dexanabinol, 7-hydroxy-delta6-tetrahydrocannabinol 1,1-dimethylheptyl], for which, under “one prior study”, the intracranial pressure entry is given as “lowered intracranial pressure”. For the same compound, the “gliosis and the subsequent immune cascade” value (other prior studies) is “did not inhibit gliosis”.
